In patent US12655150B2 (Cedilla Therapeutics, Inc., priority 2021, dated 2026):

These compounds were tested on NCI-H226 (assay: 72H TEAD Proliferation Assay (Cell Titer Glo 2.0)). Conditions: Homo sapiens, NCI-H226, 72 h, CTG 2.0, cell line not given (NCI-H226 responsive, NCI-H28 non-responsive).
Type: cell-based
Procedure, shortened: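 Growth read-out is ATP luminescence (CellTiter-Glo 2.0) after 72 h compound exposure, corrected for no-CTG background and day-0 values, with GI50 from nonlinear regression. Sensitive line NCI-H226 (NF2-deficient); non-responsive NCI-H28 (NF2 wild type) distinguishes TEAD-driven from nonspecific growth inhibition.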

| Structure (SMILES) | GI50 [nM] |
| --- | --- |
| C#Cc1cc(-c2ccc(C(F)(F)F)cc2)nc2cc(C(=O)O)ccc12 [I-402, 4-ethynyl-2-(4-(trifluoromethyl)phenyl)quinoline-7-carboxylic acid] | ≤ 1000 |
| O=C(O)c1ccc2ccc(-c3ccc(C(F)(F)F)cc3)nc2c1 [I-403, 2-(4-(trifluoromethyl)phenyl)quinoline-7-carboxylic acid] | 1000 to 5000 |
| Cc1cc2c(-c3ccc(C(F)(F)F)cc3)nc3cc(C(=O)O)ccc3n2c1 [I-404, 2-Methyl-4-(4-(trifluoromethyl)phenyl)pyrrolo[1,2-a]quinoxaline-7-carboxylic acid] | ≤ 1000 |
| Cc1cc2c(-c3ccc(C(F)(F)F)cn3)nc3cc(C(=O)O)ccc3n2c1 [I-405, 2-Methyl-4-(5-(trifluoromethyl)pyridin-2-yl)pyrrolo[1,2-a]quinoxaline-7-carboxylic acid] | ≤ 1000 |
| Cc1cc2c(N3CCC(C(F)(F)F)CC3)nc3cc(C(=O)O)ccc3n2c1 [I-406, 2-Methyl-4-(4-(trifluoromethyl)piperidin-1-yl)pyrrolo[1,2-a]quinoxaline-7-carboxylic acid] | ≤ 1000 |
| C=CC(=O)NCc1nc(-c2ccc(C(F)(F)F)cc2)cn2ccnc12 [I-408, N-((6-(4-(trifluoromethyl)phenyl)imidazo[1,2-a]pyrazin-8-yl)methyl)acrylamide] | ≤ 1000 |
| C=CC(=O)NCc1cn2c(F)ccc2c(-c2ccc(C(C)(C)C)cc2)n1 [I-409, N-((1-(4-(tert-butyl)phenyl)-6-fluoropyrrolo[1,2-a]pyrazin-3-yl)methyl)acrylamide] | ≤ 1000 |
| C=CC(=O)NCc1nc2ncccn2c1-c1ccc(C(F)(F)F)cc1 [I-410, N-((3-(4-(trifluoromethyl)phenyl)imidazo[1,2-a]pyrimidin-2-yl)methyl)acrylamide] | ≤ 1000 |
| CC(C)(C)c1ccc(-c2nc3cc(C(=O)O)ccc3n3cc(SC(F)(F)F)cc23)cc1 [I-411, 4-(4-(tert-Butyl)phenyl)-2-((trifluoromethyl)thio)pyrrolo[1,2-a]quinoxaline-7-carboxylic acid] | 1000 to 5000 |
| C=CC(=O)NC1CCCc2ccc(-c3ccc(C(F)(F)F)cc3)nc21 (centres unmarked) [I-412, N-(2-(4-(trifluoromethyl)phenyl)-5,6,7,8-tetrahydroquinolin-8-yl)acrylamide] | 5000 to 10000 |
| COc1cc(-c2ccc(C(F)(F)F)cc2)nc2cc(-c3nnc(C)[nH]3)ccc12 [I-413, 4-methoxy-7-(5-methyl-4H-1,2,4-triazol-3-yl)-2-(4-(trifluoromethyl)phenyl)quinolone] | 5000 to 10000 |
| COc1cc(-c2ccc(C(F)(F)F)cc2)nc2cc(S(C)(=O)=O)ccc12 [I-415, 4-methoxy-7-(methylsulfonyl)-2-(4-(trifluoromethyl)phenyl)quinoline] | ≤ 1000 |
| COc1cc(-c2ccc(C(F)(F)F)cc2)nc2cc(S(N)(=O)=O)ccc12 [I-416, 4-Methoxy-2-(4-(trifluoromethyl)phenyl)quinoline-7-sulfonamide] | 1000 to 5000 |
| CCNS(=O)(=O)c1ccc2c(OC)cc(-c3ccc(C(F)(F)F)cc3)nc2c1 [I-417, N-ethyl-4-methoxy-2-(4-(trifluoromethyl)phenyl)quinoline-7-sulfonamide] | ≤ 1000 |
| COc1cc(-c2ccc(C(F)(F)F)cc2)nc2cc(-c3ccccn3)ccc12 [I-418, 4-Methoxy-7-(pyridin-2-yl)-2-(4-(trifluoromethyl)phenyl)quinoline] | 5000 to 10000 |
| COc1cc(-c2ccc(C(F)(F)F)cc2)nc2cc(C3(O)COC3)ccc12 [I-419, 3-(4-methoxy-2-(4-(trifluoromethyl)phenyl)quinolin-7-yl)oxetan-3-ol] | 1000 to 5000 |

| Structure (SMILES) | GI50 [nM] |
| --- | --- |
| O=C(O)c1cc2nc(-c3ccc(C(F)(F)F)cc3)c3ccccc3n2c1 [I-421, 5-(4-(trifluoromethyl)phenyl)pyrrolo[1,2-a]quinazoline-2-carboxylic acid] | 1000 to 5000 |
| Cc1nc2ccc(C(=O)O)cc2nc1-c1ccc(C(F)(F)F)cc1 [I-422, 2-methyl-3-(4-(trifluoromethyl)phenyl)quinoxaline-6-carboxylic acid] | 5000 to 10000 |
| CC[C@H](CO)NC(=O)c1ccc2nc(C)c(-c3ccc(C(F)(F)F)cc3)nc2c1 [I-423, (R)—N-(1-hydroxybutan-2-yl)-2-methyl-3-(4-(trifluoromethyl)phenyl)quinoxaline-6-carboxamide] | 5000 to 10000 |
| CC(C)c1cc(-c2ccc(C(F)(F)F)cc2)nc2cc(C(=O)O)ccc12 [I-425, 4-isopropyl-2-(4-(trifluoromethyl)phenyl)quinoline-7-carboxylic acid] | 1000 to 5000 |
| CC(C)c1cc(-c2ccc(C(F)(F)F)cc2)nc2cc(C(=O)N[C@H](C)CO)ccc12 [I-426, (R)—N-(1-hydroxypropan-2-yl)-4-isopropyl-2-(4-(trifluoromethyl)phenyl)quinoline-7-carboxamide] | 1000 to 5000 |
| C[C@H](CO)NC(=O)c1ccc2ccc(-c3ccc(C(F)(F)F)cc3)nc2c1 [I-427, (R)—N-(1-hydroxypropan-2-yl)-2-(4-(trifluoromethyl)phenyl)quinoline-7-carboxamide] | 1000 to 5000 |
| O=C(N[C@@H](CO)c1ccccc1)c1ccc2ccc(-c3ccc(C(F)(F)F)cc3)nc2c1 [I-428, (R)—N-(2-hydroxy-1-phenylethyl)-2-(4-(trifluoromethyl)phenyl)quinoline-7-carboxamide] | ≤ 1000 |
| COc1c(C)c(-c2ccc(C(F)(F)F)cc2)nc2cc(C(=O)N[C@H](C)CO)ccc12 [I-431, (R)—N-(1-hydroxypropan-2-yl)-4-methoxy-3-methyl-2-(4-(trifluoromethyl)phenyl)quinoline-7-carboxamide] | 5000 to 10000 |
| CCOc1nc(-c2ccc(C(F)(F)F)cc2)nc2cc(C(=O)O)ccc12 [I-432, 4-ethoxy-2-(4-(trifluoromethyl)phenyl)quinazoline-7-carboxylic acid] | ≤ 1000 |
| COc1nc(-c2ccc(C(F)(F)F)cc2)nc2cc(C(=O)O)ccc12 [I-433, 4-methoxy-2-(4-(trifluoromethyl)phenyl)quinazoline-7-carboxylic acid] | ≤ 1000 |
| COc1nc(-c2ccc(C(F)(F)F)cc2)nc2cc(C(=O)N[C@H](C)CO)ccc12 [I-434, (R)—N-(1-hydroxypropan-2-yl)-4-methoxy-2-(4-(trifluoromethyl)phenyl)quinazoline-7-carboxamide] | ≤ 1000 |
| Cc1nc(-c2ccc(C(F)(F)F)cc2)nc2cc(C(=O)O)ccc12 [I-435, 4-methyl-2-(4-(trifluoromethyl)phenyl)quinazoline-7-carboxylic acid] | 1000 to 5000 |
| Cc1nc(-c2ccc(C(F)(F)F)cc2)nc2cc(C(=O)N[C@H](C)CO)ccc12 [I-436, (R)—N-(1-hydroxypropan-2-yl)-4-methyl-2-(4-(trifluoromethyl)phenyl)quinazoline-7-carboxamide] | ≤ 1000 |
| C=CC(=O)NCc1cn2ccnc2c(N2CCC3(CC2)CC3)n1 [I-437, N-((8-(6-azaspiro[2.5]octan-6-yl)imidazo[1,2-a]pyrazin-6-yl)methyl)acrylamide] | 1000 to 5000 |
| C=CC(=O)NCc1nc(-c2ccc(C(F)(F)F)cc2)n2cccnc12 [I-438, N-((6-(4-(trifluoromethyl)phenyl)imidazo[1,5-a]pyrimidin-8-yl)methyl)acrylamide] | 1000 to 5000 |
| C=CC(=O)NCc1cn2ccnc2c(Oc2cccc(C(C)(C)C)c2)n1 [I-441, N-((8-(3-(tert-butyl)phenoxy)imidazo[1,2-a]pyrazin-6-yl)methyl)acrylamide] | ≤ 1000 |
